The structures appear in SMILES notation. Calls of active or inactive are those of the source. The calls are words filed in the database; no cut-off is given here. Bounds are passed on as bounds.

26 compounds from ChEMBL document CHEMBL4316626, “N-Acyl pyrazoles: Effective and tunable inhibitors of serine hydrolases” (Bioorg Med Chem, 2019) can be followed below.

Assay [1] concerns the target T1, Fatty-acid amide hydrolase 1 (Mus musculus, UniProt O08914).
T1 sequence (O08914 whole entry): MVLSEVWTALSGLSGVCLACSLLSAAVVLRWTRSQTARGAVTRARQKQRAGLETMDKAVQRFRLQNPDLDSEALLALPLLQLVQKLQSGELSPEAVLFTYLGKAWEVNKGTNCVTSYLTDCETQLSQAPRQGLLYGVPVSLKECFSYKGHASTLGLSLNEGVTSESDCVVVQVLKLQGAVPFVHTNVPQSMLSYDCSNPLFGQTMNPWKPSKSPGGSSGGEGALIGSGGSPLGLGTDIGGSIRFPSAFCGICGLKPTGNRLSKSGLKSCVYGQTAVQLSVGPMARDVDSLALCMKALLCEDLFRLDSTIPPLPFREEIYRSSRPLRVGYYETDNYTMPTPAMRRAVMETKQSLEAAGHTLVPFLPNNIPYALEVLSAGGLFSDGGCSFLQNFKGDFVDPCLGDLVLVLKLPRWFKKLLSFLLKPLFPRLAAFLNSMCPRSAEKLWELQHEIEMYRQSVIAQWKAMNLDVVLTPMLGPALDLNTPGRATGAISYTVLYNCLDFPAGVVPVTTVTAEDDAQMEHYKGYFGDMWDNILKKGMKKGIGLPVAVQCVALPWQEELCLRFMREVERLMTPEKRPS
The assay is described as follows: Inhibition of FP-rhodamine probe binding to FAAH in mouse brain membrane proteome preincubated for 1 hr followed by FP-rhodamine addition and measured after 30 mins by SDS-PAGE based fluorescence assay. It is filed as cell membranes.

Assay [2] can be described thus: Inhibition of recombinant rat FAAH deltaTM mutant expressed in Escherichia coli using 14C-labeled oleamide as substrate preincubated for 3 hrs followed by substrate addition and measured by TLC based Dixon-plot analysis. The settings on record: read-out: Ki(app).
The target of assay [3] is T2, Monoglyceride lipase (Mus musculus, UniProt O35678).
T2 sequence (O35678 whole entry): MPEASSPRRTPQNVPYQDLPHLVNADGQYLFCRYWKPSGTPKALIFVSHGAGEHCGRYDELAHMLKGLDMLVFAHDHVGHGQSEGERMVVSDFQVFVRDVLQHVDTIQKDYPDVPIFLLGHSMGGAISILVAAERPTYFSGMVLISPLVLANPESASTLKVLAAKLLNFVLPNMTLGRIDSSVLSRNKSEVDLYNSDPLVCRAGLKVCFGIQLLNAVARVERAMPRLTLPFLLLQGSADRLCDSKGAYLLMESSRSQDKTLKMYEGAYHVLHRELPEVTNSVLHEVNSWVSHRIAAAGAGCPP
Kind of assay: Inhibition of FP-rhodamine probe binding to MGLL in mouse brain membrane proteome preincubated for 1 hr followed by FP-rhodamine addition and measured after 30 mins by SDS-PAGE based fluorescence assay. The assay is classed as cell membranes.

Assay [4] addresses T3, Neutral cholesterol ester hydrolase 1 (Mus musculus, UniProt Q8BLF1).
T3 sequence (Q8BLF1 whole entry): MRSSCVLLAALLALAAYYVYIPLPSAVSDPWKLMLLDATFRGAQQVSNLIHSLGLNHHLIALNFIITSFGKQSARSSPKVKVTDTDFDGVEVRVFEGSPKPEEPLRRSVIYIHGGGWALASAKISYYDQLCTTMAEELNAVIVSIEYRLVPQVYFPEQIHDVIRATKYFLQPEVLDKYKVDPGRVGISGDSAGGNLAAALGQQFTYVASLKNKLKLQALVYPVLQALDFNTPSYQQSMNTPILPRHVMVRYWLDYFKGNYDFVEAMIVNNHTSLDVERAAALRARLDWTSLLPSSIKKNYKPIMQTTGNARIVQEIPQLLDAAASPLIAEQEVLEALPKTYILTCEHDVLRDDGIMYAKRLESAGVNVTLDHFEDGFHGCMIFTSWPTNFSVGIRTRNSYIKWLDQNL
Kind of assay: Inhibition of FP-rhodamine probe binding to KIAA1363 in mouse brain membrane proteome preincubated for 1 hr followed by FP-rhodamine addition and measured after 30 mins by SDS-PAGE based fluorescence assay. The assay is classed as cell membranes.

Assay [5] concerns the target T4, Monoacylglycerol lipase ABHD6 (Mus musculus, UniProt Q8R2Y0).
T4 sequence (Q8R2Y0 whole entry): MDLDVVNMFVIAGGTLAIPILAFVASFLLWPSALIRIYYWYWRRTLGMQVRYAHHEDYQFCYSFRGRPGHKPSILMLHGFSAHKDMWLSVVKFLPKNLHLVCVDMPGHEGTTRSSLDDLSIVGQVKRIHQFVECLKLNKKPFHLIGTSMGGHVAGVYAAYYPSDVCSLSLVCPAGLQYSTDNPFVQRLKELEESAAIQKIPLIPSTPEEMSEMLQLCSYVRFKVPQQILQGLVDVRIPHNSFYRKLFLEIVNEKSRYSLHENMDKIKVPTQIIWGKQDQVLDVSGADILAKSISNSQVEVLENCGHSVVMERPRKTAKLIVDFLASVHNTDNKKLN
Kind of assay: Inhibition of FP-rhodamine probe binding to ABHD6 in mouse brain membrane proteome preincubated for 1 hr followed by FP-rhodamine addition and measured after 30 mins by SDS-PAGE based fluorescence assay. It is filed as cell membranes.

For assay [6], the species on record is Rattus norvegicus. Kind of assay: Irreversible inhibition of recombinant rat FAAH deltaTM mutant expressed in Escherichia coli at 100 nM using 14C-labeled oleamide as substrate preincubated for 3 hrs followed by dialysis for 18 hrs.
The species entered for assay [7] is Rattus norvegicus. The assay is described as follows: Inhibition of recombinant rat FAAH deltaTM mutant expressed in Escherichia coli at 100 nM using 14C-labeled oleamide as substrate preincubated for 3 hrs by TLC method relative to control.

Consider `Cc1cnn(C(=O)NCc2ccc(OC(c3ccccc3)c3ccccc3)cc2)c1`, for which the IC50 in assay [1], in assay [3] and in assay [4] was more than 100 µM throughout. Besides, in assay [2], the Ki is 220 µM.

On to `Cc1cnn(C(=O)N(C)CCN(C)Cc2ccc(OCc3ccccc3)cc2)c1`, for which the 50% inhibitory concentration (IC50) in assay [5] was 1.2 µM; in assay [1], 8.7 µM; in assay [3] it was 1.2 µM; in assay [4] it was more than 100 µM. The Ki in assay [2] is 0.07 µM.

On to `CN(CCN(C)C(=O)n1cccn1)Cc1ccc(OCc2ccccc2)cc1`, for which the 50% inhibitory concentration (IC50) in assay [5] was 0.53 µM; in assay [1] it was 0.51 µM; in assay [3] it was 0.66 µM; in assay [4], more than 100 µM. In addition, the Ki in assay [2] was 0.013 µM.

In the case of `Cc1cnn(C(=O)N(C)CCN(C)Cc2cccc(OCc3ccccc3)c2)c1`, the IC50 was 8.3 µM in assay [5], 9 µM in assay [1], 4.1 µM in assay [3] and more than 100 µM in assay [4]. The Ki in assay [2] stood at 0.035 µM.

Consider `Cc1cnn(C(=O)N2CCN(Cc3ccc4ccccc4c3)CC2)c1`, for which the inhibition entry in assay [6] was “Active”. Further, the half-inhibitory concentration (IC50) in assay [5] is 0.01 µM; in assay [1], 0.96 µM; in assay [3], 0.92 µM; in assay [4] it was more than 100 µM. Further, the inhibition in assay [7] was more than 70%. Moreover, the Ki in assay [2] turned out to be 0.13 µM.

On to `Cc1cnn(C(=O)N2CCCCC2)c1`, for which the IC50 in assay [5] was 1.1 µM; in assay [1], 2.2 µM; in assay [3] it was 9.2 µM; in assay [4], more than 100 µM. For the same compound, the Ki in assay [2] is more than 1 µM.

Take `O=C(N1CCCCC1)n1cccn1`: the IC50 in assay [5] was 5 µM; in assay [1], 1 µM; in assay [3] it was 6.6 µM; in assay [4] it was more than 100 µM. Besides, the Ki in assay [2] came out at 0.75 µM.

As for `O=C(NCc1ccc(OCc2ccccc2)cc1)n1cccn1`, the values for the IC50 in assay [1], in assay [3] and in assay [4] were 0.8 µM, 0.9 µM and more than 100 µM, respectively. In addition, the Ki in assay [2] turned out to be 0.1 µM.

Take `Cc1cnn(C(=O)N2CCCN(Cc3ccc(OCc4ccccc4)cc3)CC2)c1`: the concentration for half-maximal inhibition (IC50) was 9.5 µM in assay [5], 0.56 µM in assay [1], 9.5 µM in assay [3] and more than 100 µM in assay [4]. For the same compound, the Ki in assay [2] is 0.23 µM.

Regarding `CN(CCN(C)C(c1ccc(OCc2ccccc2)cc1)c1ccc(OCc2ccccc2)cc1)C(=O)n1cccn1`, the half-inhibitory concentration (IC50) in assay [5], in assay [1], in assay [3] and in assay [4] was more than 1000 µM throughout.

Take `Cc1cnn(C(=O)NCc2ccc(OCc3ccccc3)cc2)c1`: the concentration for half-maximal inhibition (IC50) in assay [1] was 1.2 µM; in assay [3] it was 1 µM; in assay [4] it was more than 100 µM. Also, the Ki in assay [2] came to 0.3 µM.

Consider `O=C(N1CCN(C(c2ccc(OCc3ccccc3)cc2)c2ccc(OCc3ccccc3)cc2)CC1)n1cccn1`, for which the IC50 in assay [5] was more than 100 µM; in assay [1], more than 100 µM; in assay [3] it was 3.9 µM; in assay [4] it was more than 100 µM. The Ki in assay [2] stood at 73 µM.

On to `Cc1cnn(C(=O)N2CCN(C(c3ccc4ccccc4c3)c3ccc4ccccc4c3)CC2)c1`, for which the IC50 in assay [5] is more than 100 µM; in assay [1] it was more than 100 µM; in assay [3], 0.26 µM; in assay [4], more than 100 µM.

In the case of `N#Cc1cnn(C(=O)NCc2ccc(OCc3ccccc3)cc2)c1`, the figures for the IC50 in assay [1], in assay [3] and in assay [4] were 0.06 µM, 0.1 µM and more than 100 µM, respectively. In addition, the Ki in assay [2] amounted to 0.017 µM.

For `N#Cc1cnn(C(=O)N2CCCN(Cc3ccc(OCc4ccccc4)cc3)CC2)c1`, the IC50 is 0.085 µM in assay [5], less than 0.01 µM in assay [1], 10 µM in assay [3] and more than 100 µM in assay [4]. The Ki in assay [2] was 0.0015 µM.

As for `CN(CCN(C)C(=O)n1cc(C#N)cn1)Cc1cccc(OCc2ccccc2)c1`, the 50% inhibitory concentration (IC50) in assay [5] was 1.1 µM; in assay [1], 0.19 µM; in assay [3], 0.59 µM; in assay [4], more than 100 µM. For the same compound, the Ki in assay [2] was 0.0013 µM.

Regarding `N#Cc1cnn(C(=O)NCc2ccc(OC(c3ccccc3)c3ccccc3)cc2)c1`, the IC50 in assay [1], in assay [3] and in assay [4] was more than 100 µM throughout. Further, in assay [2], the Ki is 80 µM.

`O=C(N1CCCN(Cc2ccc(OCc3ccccc3)cc2)CC1)n1cccn1`: the 50% inhibitory concentration (IC50) was 0.96 µM in assay [5], 0.45 µM in assay [1], 10 µM in assay [3] and more than 100 µM in assay [4]. The Ki in assay [2] was 0.034 µM.

On to `CN(CCN(C)C(=O)n1cc(C#N)cn1)Cc1ccc(OCc2ccccc2)cc1`, for which the 50% inhibitory concentration (IC50) was 0.32 µM in assay [5], 0.12 µM in assay [1], 0.26 µM in assay [3] and more than 100 µM in assay [4]. Moreover, the Ki in assay [2] is 0.003 µM.

As to `Cc1cnn(C(=O)N(C)CCN(C)C(c2ccc(OCc3ccccc3)cc2)c2ccc(OCc3ccccc3)cc2)c1`, the concentration for half-maximal inhibition (IC50) in assay [5], in assay [1], in assay [3] and in assay [4] was more than 1000 µM in each case. For the same compound, the Ki in assay [2] came to 140 µM.

Regarding `O=C(N1CCN(C(c2ccc3ccccc3c2)c2ccc3ccccc3c2)CC1)n1cccn1`, the IC50 was more than 100 µM in assay [5], more than 100 µM in assay [1], 1.8 µM in assay [3] and more than 100 µM in assay [4].

`CN(CCN(C)C(=O)n1cccn1)Cc1cccc(OCc2ccccc2)c1`: the IC50 was 5.5 µM in assay [5], 3 µM in assay [1], 4.6 µM in assay [3] and more than 100 µM in assay [4]. The Ki in assay [2] was found to be 0.0066 µM.

Regarding `Cc1cnn(C(=O)N2CCN(C(c3ccc(OCc4ccccc4)cc3)c3ccc(OCc4ccccc4)cc3)CC2)c1`, the IC50 is more than 100 µM in assay [5], more than 100 µM in assay [1], 2.1 µM in assay [3] and more than 100 µM in assay [4]. Further, the Ki in assay [2] came to 110 µM.

Turning to `CN(CCN(C)C(c1ccc(OCc2ccccc2)cc1)c1ccc(OCc2ccccc2)cc1)C(=O)n1cc(C#N)cn1`, the IC50 was more than 1000 µM in assay [5], more than 1000 µM in assay [1], 32 µM in assay [3] and more than 1000 µM in assay [4].

Turning to `O=C(NCc1ccc(OC(c2ccccc2)c2ccccc2)cc1)n1cccn1`, the IC50 in assay [1], in assay [3] and in assay [4] was more than 100 µM each time. Moreover, in assay [2], the Ki was 140 µM.

For the compound `N#Cc1cnn(C(=O)N2CCCCC2)c1`, the half-maximal inhibitory concentration (IC50) is 0.06 µM in assay [5], less than 0.01 µM in assay [1], 0.12 µM in assay [3] and more than 100 µM in assay [4]. Besides, the Ki in assay [2] turned out to be 0.08 µM.
